Measurements as given in ChEMBL document CHEMBL1201862, “PubChem BioAssay data set” (2004).
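Where inhibition never reached the appropriate level, the endpoint shown equals the highest concentration tested. Otherwise, values were interpolated linearly from a five-concentration, 48-hour dose response in 96-well plates. GI50: concentration for 50% inhibition of growth.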 Activity calls are given as the source filed them. Cut-off read from the data, not from the text of the source: active = GI50 up to about 1.1 µM and inactive = higher.

What was measured:
Assay in all cases: NCI tumour cell line growth inhibition, 48 h
RXF 393 = system: RXF 393
CCRF-CEM = system: CCRF-CEM
M19-MEL = system: M19-MEL
U-251 = system: U-251
UACC-62 = system: UACC-62
NCI/ADR-RES = system: NCI/ADR-RES
EKVX = system: EKVX
OVCAR-5 = system: OVCAR-5
COLO 205 = system: COLO 205
KM12 = system: KM12
MOLT-4 = system: MOLT-4
HCT-116 = system: HCT-116
CAKI-1 = system: CAKI-1
NCI-H226 = system: NCI-H226
A549 = system: A549
SF-268 = system: SF-268
SNB-19 = system: SNB-19
OVCAR-3 = system: OVCAR-3
NCI-H23 = system: NCI-H23
HOP-18 = system: HOP-18
OVCAR-8 = system: OVCAR-8
NCI-H522 = system: NCI-H522
SNB-78 = system: SNB-78
IGROV-1 = system: IGROV-1
LOX IMVI = system: LOX IMVI
SK-OV-3 = system: SK-OV-3
DLD-1 = system: DLD-1
HOP-62 = system: HOP-62
SK-MEL-5 = system: SK-MEL-5
DMS-114 = system: DMS-114
XF498 = system: XF498
HT-29 = system: HT-29
SNB-75 = system: SNB-75
UACC-257 = system: UACC-257
A498 = system: A498
UO-31 = system: UO-31
KM-20L2 = system: KM-20L2
HOP-92 = system: HOP-92
MCF7 = system: MCF7
NCI-H460 = system: NCI-H460
DMS-273 = system: DMS-273
OVCAR-4 = system: OVCAR-4
HL-60 = system: HL-60
HCC 2998 = system: HCC 2998
RPMI-8226 = system: RPMI-8226
SN12C = system: SN12C
K562 = system: K562
SF-539 = system: SF-539
HCT-15 = system: HCT-15
SF-295 = system: SF-295
SK-MEL-2 = system: SK-MEL-2
SW-620 = system: SW-620
SK-MEL-28 = system: SK-MEL-28
ACHN = system: ACHN
M14 = system: M14
786-0 = system: 786-0
SR = system: SR
Malme-3M = system: Malme-3M
TK-10 = system: TK-10

## O=c1cc[nH]c(=O)[nH]1 [URACIL]
RXF 393
  GI50: 316 µM (inactive)
CCRF-CEM
  GI50: 318 µM (inactive)
M19-MEL
  GI50: 279 µM (inactive)
U-251
  GI50: 370 µM (inactive)
UACC-62
  GI50: 330 µM (inactive)
NCI/ADR-RES
  GI50: > 562 µM (inactive)
EKVX
  GI50: 294 µM (inactive)
OVCAR-5
  GI50: > 746 µM (inactive)
COLO 205
  GI50: 187 µM (inactive)
KM12
  GI50: 237 µM (inactive)
MOLT-4
  GI50: 550 µM (inactive)
HCT-116
  GI50: 261 µM (inactive)
CAKI-1
  GI50: 307 µM (inactive)
NCI-H226
  GI50: 329 µM (inactive)
A549
  GI50: 435 µM (inactive)
SF-268
  GI50: 578 µM (inactive)
SNB-19
  GI50: 431 µM (inactive)
OVCAR-3
  GI50: 667 µM (inactive)
NCI-H23
  GI50: 147 µM (inactive)
HOP-18
  GI50: > 1000 µM (inactive)
OVCAR-8
  GI50: 527 µM (inactive)
NCI-H522
  GI50: 371 µM (inactive)
SNB-78
  GI50: 475 µM (inactive)
IGROV-1
  GI50: > 828 µM (inactive)
LOX IMVI
  GI50: 375 µM (inactive)
SK-OV-3
  GI50: 813 µM (inactive)
DLD-1
  GI50: 532 µM (inactive)
HOP-62
  GI50: 340 µM (inactive)
SK-MEL-5
  GI50: 177 µM (inactive)
DMS-114
  GI50: 553 µM (inactive)
XF498
  GI50: 4.23 µM (inactive)
HT-29
  GI50: 509 µM (inactive)
SNB-75
  GI50: 350 µM (inactive)
UACC-257
  GI50: 804 µM (inactive)
A498
  GI50: 6.82 µM (inactive)
UO-31
  GI50: 1000 µM (inactive)
KM-20L2
  GI50: 426 µM (inactive)
HOP-92
  GI50: 311 µM (inactive)
MCF7
  GI50: 398 µM (inactive)
NCI-H460
  GI50: 305 µM (inactive)
DMS-273
  GI50: 403 µM (inactive)
OVCAR-4
  GI50: > 656 µM (inactive)
HL-60
  GI50: 581 µM (inactive)
HCC 2998
  GI50: 322 µM (inactive)
RPMI-8226
  GI50: > 946 µM (inactive)
SN12C
  GI50: 502 µM (inactive)
K562
  GI50: 465 µM (inactive)
SF-539
  GI50: 378 µM (inactive)
HCT-15
  GI50: 798 µM
SF-295
  GI50: 382 µM (inactive)
SK-MEL-2
  GI50: 393 µM (inactive)
SW-620
  GI50: 361 µM (inactive)
SK-MEL-28
  GI50: 327 µM (inactive)

## CCOC(=O)C1=C(O)C(=O)c2cc(C)ccc2C1=O
RXF 393
  GI50: > 100 µM (inactive)
CCRF-CEM
  GI50: > 100 µM (inactive)
M19-MEL
  GI50: 16.6 µM (inactive)
U-251
  GI50: > 100 µM (inactive)
UACC-62
  GI50: 44.1 µM (inactive)
EKVX
  GI50: > 100 µM (inactive)
OVCAR-5
  GI50: > 100 µM (inactive)
COLO 205
  GI50: 49.8 µM (inactive)
KM12
  GI50: > 100 µM (inactive)
MOLT-4
  GI50: > 100 µM (inactive)
HCT-116
  GI50: 81.7 µM (inactive)
CAKI-1
  GI50: > 100 µM (inactive)
NCI-H226
  GI50: 22.2 µM (inactive)
ACHN
  GI50: > 100 µM (inactive)
A549
  GI50: 39.4 µM (inactive)
SF-268
  GI50: > 100 µM (inactive)
SNB-19
  GI50: 31.6 µM (inactive)
OVCAR-3
  GI50: 93.3 µM (inactive)
NCI-H23
  GI50: 27.2 µM (inactive)
HOP-18
  GI50: 45.5 µM (inactive)
OVCAR-8
  GI50: > 100 µM (inactive)
NCI-H522
  GI50: > 100 µM (inactive)
SNB-78
  GI50: > 100 µM (inactive)
IGROV-1
  GI50: > 100 µM (inactive)
LOX IMVI
  GI50: 55.2 µM (inactive)
SK-OV-3
  GI50: > 100 µM (inactive)
M14
  GI50: 54.8 µM (inactive)
DLD-1
  GI50: > 100 µM (inactive)
786-0
  GI50: > 100 µM (inactive)
HOP-62
  GI50: 63.4 µM (inactive)
SK-MEL-5
  GI50: 31 µM (inactive)
DMS-114
  GI50: > 100 µM (inactive)
XF498
  GI50: > 100 µM (inactive)
HT-29
  GI50: > 100 µM (inactive)
SNB-75
  GI50: 43.5 µM (inactive)
UACC-257
  GI50: 48 µM (inactive)
A498
  GI50: 21.9 µM (inactive)
UO-31
  GI50: > 100 µM (inactive)
SR
  GI50: > 100 µM (inactive)
KM-20L2
  GI50: > 100 µM (inactive)
HOP-92
  GI50: > 100 µM (inactive)
NCI-H460
  GI50: > 100 µM (inactive)
Malme-3M
  GI50: 65.3 µM (inactive)
DMS-273
  GI50: > 100 µM (inactive)
OVCAR-4
  GI50: > 100 µM (inactive)
HL-60
  GI50: > 100 µM (inactive)
HCC 2998
  GI50: > 100 µM (inactive)
RPMI-8226
  GI50: > 100 µM (inactive)
SN12C
  GI50: > 100 µM (inactive)
K562
  GI50: > 100 µM (inactive)
SF-539
  GI50: > 100 µM (inactive)
HCT-15
  GI50: 77.8 µM
SF-295
  GI50: 54.3 µM (inactive)
TK-10
  GI50: > 100 µM (inactive)
SK-MEL-2
  GI50: > 100 µM (inactive)
SW-620
  GI50: > 100 µM (inactive)
SK-MEL-28
  GI50: > 100 µM (inactive)
